Patent US20020068712A1, “Use of decreasing levels of functional transient receptor potential gene product” (priority 1999, published 2002)

Experiments:
Format in all cases: cell-based, rat
[1] = tested on: RPAECs; assay: [Ca2+]i measurement by fura 2 fluorescence
Protocol: RPAECs were seeded onto chambered glass coverslips (Nalge Nunc, Naperville, Ill.) and grown to confluence. [Ca^2+]i was estimated with the Ca^2+-sensitive fluorophore fura 2-AM (Molecular Probes, Eugene, Oreg.) according to methods previously described by our laboratory (38). Because this is the first report of [Ca^2+]i measurements in cultured RPAECS, a summary of the technique will be presented. RPAECs were washed with 2 ml of a HEPES (Fisher Scientific, Atlanta, Ga.)-buffered physiological salt solution (PSS) containing (in g/l) 6.9 NaCl, 0.35 KCl, 0.16 KH2PO4, 0.141 MgSO4, 2.0 D-glucose, and 2.1 NaHCO3. The loading solution (1 ml) consisted of PSS plus 3 μM fura 2-AM, 3 μl of a 10% pluronic acid solution, and 2 mM or 100 nM CaCl2. RPAECs were fura loaded for 20 min in a CO2 incubator at 37° C. After this loading period, the cells were again washed with PSS (2 ml) and treated with deesterification medium (PSS+2 mM or 100 nM CaCl2) for an additional 20 min. After deesterification, [Ca^2+]i was assessed with an Olympus 1×70 inverted microscope at ×400 with a xenon arc lamp photomultiplier system (Photon Technologies, Monmouth Junction, N.J.), and data were acquired and analyzed with PTI Felix software. Epifluorescence (signal averaged) was measured from three to four endothelial cells in a confluent monolayer, and the changes in [Ca^2+]i are expressed as the fluorescence ratio of the Ca^2+-bound (340-nm) to Ca^2+-unbound (380-nm) excitation wavelengths emitted at 510 nm.

[2] = tested on: RPAECs; assay: Assessment of filamentous actin arrangement (confocal microscopy)
Protocol: Experiments to determine filamentous actin (F-actin) arrangement were conducted in parallel with those assessing endothelial cell shape. […] were seeded onto glass coverslips, and F-actin was stained with Oregon Green-phalloidin (Molecular Probes) with a standard fixation and staining protocol. Cells were analyzed by confocal microscopy (excitation at 496 nm and emmision at 520 nm). Micrographs were taken at multiple cellular depths (0.3-μm steps, 13-15 sections) and were used to deduce the microfilamentous cytoskeleton configurations of the cells.

[3] = tested on: RPAECs; assay: Whole cell patch clamp determination of store-operated Ca2+ entry
Protocol: Whole cell patch clamp was utilized to measure transmembrane ion flux in thapsigargin-stimulated RPAECs. Confluent RPAECs were enzyme dispersed, seeded onto 35-mm plastic culture dishes, and then allowed to reattach for at least 24 h before patch-clamp experiments were performed. […] These cells were chosen for study because their morphology was consistent with RPAECs from a confluent monolayer. The extracellular and pipette solutions were composed of the following (in mM): 1) extracellular: 110 tetraethylammonium aspartate, 10 calcium aspartate, 10 HEPES, and 0.5 3,4-diaminopyridine; and 2) pipette: 130 N-mehyl-D-glucamine, 1.15 EGTA, 10 HEPES, 1 Ca(OH)2, and 2 Mg^2+-ATP. Both solutions were adjusted to 290-300 mosM with sucrose and pH 7.4 with methane sulfonic acid, and [Ca^2+]i was estimated as 100 nM (10). The pipette resistance was 2-5 MΩ. Data were obtained with a HEKA EPC9 amplifier (Lambrecht/Pfaltz) and sampled on-line with Pulse+Pulsefit software (HEKA). All recordings were made at room temperature (22° C.). To generate current-voltage (I-V) relationships, voltage pulses were applied from −100 to +100 mV in 20-mV increments, with a 200-ms duration during each voltage step and a 2-s interval between steps. The holding potential between each step was 0 mV.

[4] = tested on: RPAECs; assay: Assessment of endothelial cell shape change (scanning electron micrographs)
Protocol: were seeded onto 35-mm plastic culture dishes and grown to confluence. Growth medium was replaced with experimental buffer (same as that used for [Ca^2+]i measurements but without fura 2), and the cells were subjected to one of the following protocols: 1) vehicle control (5 min) in 2 mM or 100 nM extracellular Ca^2+ concentration ([Ca^2+]o); 2) thapsigargin (1 μM, 5 min) in 2 mM or 100 nM ([Ca^2+]o; or 3) thapsigargin in 100 nM [Ca^2+]o+readdition of 2 mM CaCl2 (5 min). At the end of each experiment, the cell monolayers were fixed in 3% gluteraldehyde-PBS for 2 h. The cells were washed two times with 0.1 M cacodylate buffer, dehydrated by immersion in a series of ethanol dilutions, critical point dried in CO2, and covered with 20 nm of gold. Specimens were viewed at […] at a 15° inclination. Scanning electron micrographs were taken of representative areas in the monolayer by a pathologist blinded to the experimental protocols.

[5] = thapsigargin in 100 nM [Ca2+]o, then readdition of 2 mM [Ca2+]o
[6] = thapsigargin-stimulated current, data not shown

## C/C=C(/C)C(=O)O[C@H]1C(C)=C2[C@H]([C@@H]1OC(=O)CCCCCCC)[C@@](C)(OC(C)=O)C[C@H](OC(=O)CCC)[C@@]1(O)[C@H]2OC(=O)[C@@]1(C)O [Thapsigargin, thapsigargin]
[1]; thapsigargin 1 μM, 2 mM [Ca2+]o
  [Ca2+]i response (fura 2 340/380 fluorescence ratio): gradual increase in [Ca^2+]i to a peak level followed by a modest decline
[1]; [5]
  [Ca2+]i response after readdition of [Ca2+]o: immediate increase in [Ca^2+]i
[1]; thapsigargin, 100 nM [Ca2+]o
  peak and sustained plateau phases of [Ca2+]i response: significantly attenuated
[2]; thapsigargin in low [Ca2+]o, then readdition of 2 mM [Ca2+]o
  F-actin arrangement: appearance of dense, transcellular fibers and a decrease in peripheral F-actin staining
[2]; thapsigargin, 2 mM [Ca2+]o
  F-actin arrangement: a decrease in peripheral F-actin density and an increase in the number and/or density of central transcellular F-actin filaments
[2]; thapsigargin, low (100 nM) [Ca2+]o, compared with low [Ca2+]o alone
  F-actin arrangement: only modest changes in F-actin arrangements
[3]; 1 μM thapsigargin in pipette, at −80 mV
  net inward current stimulated: 5.45±0.90 pA/pF
[3]; 1 μM thapsigargin in pipette, calculated from −100 to −20 mV without respect to cell capacitance
  slope conductance: 1.64 nS
[3]; 1 μM thapsigargin in pipette, whole cell, 3-5 min
  effect on I-V curve: right shifted the I-V curve and increased the current magnitude
[4]; thapsigargin 1 μM, 5 min, 100 nM [Ca2+]o
  endothelial cell shape / intercellular gaps: little change in morphology and a lack of interendothelial gaps
[4]; thapsigargin 1 μM, 5 min, 2 mM [Ca2+]o
  endothelial cell shape / intercellular gaps: endothelial cell retraction and intercellular gap formation
[4]; [5]
  endothelial cell shape / intercellular gaps: pronounced cell retraction and gap formation

## O=C(O)c1ccccc1Nc1ccccc1 [N-phenylanthranilic acid]
[3]; [6]
  effect on inward current at negative voltages: little effect
  effect on outward current at positive voltages: strongly attenuated
